According to patent US20230027361A1, “METTL3 MODULATORS” (priority 2019, published 2023):
Like-named read-outs stand apart in the source and are kept apart here.

Columns and labels:
METTL3/METTL14 = METTL3/METTL14 (Homo sapiens, UniProt Q86U44); test: METTL3-14 Standard Enzyme Assay (METTL3 biochemical assay)
Outline: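 METTL3/METTL14 at 2.5 nM, preincubated 5 min with compound in 20 mM HEPES pH 7.5, 50 mM KCl, 250 μM MgCl2, 1 mM DTT, at ambient temperature. Started with 100 nM 3′-biotinylated RNA and 100 nM ³H-SAM, quenched at 30 min with 15 μM cold SAM. Methylation read by scintillation on streptavidin flashplates.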

PRMT5-MEP50 = PRMT5-MEP50 (Homo sapiens, UniProt O14744); test: PRMT5 Assay (PRMT5 biochemical assay)
Outline: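 PRMT5-MEP50 (2.5 nM final) preincubated 5 min with compound, then reacted 60 min at ambient temperature with 100 nM biotinylated N-acetyl histone H4 peptide and 250 nM 3H-SAM in 20 mM Tris-HCl pH 8.0, 1 mM DTT, 0.01% Tween. Quenched with 15 μM cold SAM; methylated peptide captured on streptavidin flashplates, scintillation counted.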

MOLM-13 cells [1] = test: MOLM-13 48 Hour Cell Proliferation Assay; format: cell-based
Description: MOLM-13 (DSMZ) cells were seeded at 1000 cells per well in a volume of 44 μL in a Falcon 384-well tissue culture treated clear bottom microplate in RPMI 1640 media containing 10% fetal bovine serum using a Multidrop Combi (ThermoFisher Scientific). Cells were incubated overnight at 37° C. in a humidified tissue culture incubator. The Mosquito® HTS Liquid Handler was used to make a compound/media intermediate plate by aliquoting 1 μL of compound from the initial compound dilution plate (concentrations ranging from 10.0 mM to 38.0 nM in 100% DMSO) into a V bottom 384-well screen matrix plate containing 49 μL of media containing the appropriate serum (50-fold dilution, 2% DMSO). The Apricot liquid handling system was used to transfer 6.2 μL compounds from the intermediate plate into the Falcon 384-well tissue culture plate containing 44 μL cells (10-point, 4-fold dilution spanning concentrations 25.0 μM to […], 0.25% DMSO final), and placed in a humidified tissue culture incubator at 37° C. After 48 hours, 25 μL of Cell Titer-Glo reagent (Promega) was added to each well using a Multidrop Combi. The plate was protected from light and placed on an IKA plate shaker for at 300 rpm for 10 minutes at room temperature. The plate was read on an EnVision plate reader (Perkin Elmer) using the Ultra Sensitive Luminescence protocol. Data analysis was performed by normalizing the raw luminescence units to an average of the positive control values for staurosporine (100% cell death) and the negative control values for DMSO (0% cell death). An IC50 was calculated using a 4-parameter logistic nonlinear regression model in GraphPad Prism.

METTL1/WDR4 = METTL1/WDR4 (Homo sapiens, UniProt Q9UBP6); test: METTL1 Assay (METTL1 biochemical assay)
Outline: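 Radiometric methyltransfer by METTL1/WDR4 (6.25 nM f.c., 5 min preincubation) at ambient temperature in HEPES pH 7.5, KCl, MgCl2, DTT; started with 25 nM 3′-biotinylated RNA and 60 nM 3H-SAM, run 20 min, quenched with 15 μM cold SAM. Product captured on streptavidin flashplates (2 h, 25° C), counted by scintillation.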

MOLM-13 cells [2] = test: MOLM-13 96 Hour Cell Proliferation Assay; format: cell-based
Description: MOLM-13 (DSMZ) cells were seeded at 600 cells per well in a volume of 44 μL in a Greiner Bio-One CELLSTAR™ 384 Well Polystyrene Cell Culture clear bottom microplate in RPMI 1640 media containing 10% fetal bovine serum using a Multidrop Combi (ThermoFisher Scientific). Cells were incubated overnight at 37° C. in a humidified tissue culture incubator. To prevent evaporation or to reduce edge effect, add 50 μL or more H2O to an empty plate, cover, and place on top of the cell plates. The Mosquito® HTS Liquid Handler was used to make a compound/media intermediate plate by aliquoting 1 μL of compound from the initial compound dilution plate (concentrations ranging from 10.0 mM to 38.0 nM in 100% DMSO) into Bio-One 384-well polypropylene conical bottom microplate containing 49 μL of media containing the appropriate serum (50-fold dilution, 2% DMSO, compound concentrations ranging from 200.0 μM and […]). The Apricot liquid handling system was used to transfer 6.2 μL compounds from the intermediate plate into the seeding plate containing 44 μL cells (8-fold dilution spanning concentrations 25.0 μM to […], 0.25% DMSO final), and placed in a humidified tissue culture incubator at 37° C. After 96 hours, 25 μL of Cell Titer-Glo reagent (Promega) was added to each well using an Integra liquid handling system. The plate was protected from light using TopSeal-A (Black) film over the entire plate, added White Bottom seal film on the bottom of the entire plate for a better reading on the Envision, and placed on an IKA plate shaker for at 300 rpm for 10 minutes at room temperature. The plate was read on an EnVision plate reader (Perkin Elmer) using the Ultra Sensitive Luminescence protocol. Data analysis was performed by normalizing the raw luminescence units to an average of the positive control values for staurosporine (100% cell death) and the negative control values for DMSO (0% cell death). An IC50 was calculated using a 4-parameter logistic nonlinear regression model in GraphPad Prism.

[3] = METTL3 biochemical assay, read-out: METTL3 IC50
[4] = PRMT5 biochemical assay, read-out: PRMT5 IC50
[5] = METTL1 biochemical assay, read-out: METTL1 IC50

METTL3/METTL14, sequence (Q86U44 whole entry, species assumed): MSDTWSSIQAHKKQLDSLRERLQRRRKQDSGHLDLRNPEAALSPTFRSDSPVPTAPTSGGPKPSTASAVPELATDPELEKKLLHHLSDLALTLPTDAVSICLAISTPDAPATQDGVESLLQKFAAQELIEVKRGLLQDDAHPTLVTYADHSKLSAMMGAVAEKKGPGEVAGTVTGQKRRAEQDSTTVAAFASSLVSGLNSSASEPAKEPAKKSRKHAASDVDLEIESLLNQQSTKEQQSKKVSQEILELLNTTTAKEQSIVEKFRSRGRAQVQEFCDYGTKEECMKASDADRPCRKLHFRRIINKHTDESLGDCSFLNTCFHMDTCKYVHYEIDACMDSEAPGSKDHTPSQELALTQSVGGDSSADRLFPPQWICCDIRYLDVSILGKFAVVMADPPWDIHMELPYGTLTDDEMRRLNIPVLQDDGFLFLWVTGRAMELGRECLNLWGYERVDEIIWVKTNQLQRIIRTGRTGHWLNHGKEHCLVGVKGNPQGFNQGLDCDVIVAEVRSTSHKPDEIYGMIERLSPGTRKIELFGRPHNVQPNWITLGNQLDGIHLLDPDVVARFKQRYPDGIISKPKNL
METTL3/METTL14, sequence (Q9HCE5 whole entry partner, species assumed): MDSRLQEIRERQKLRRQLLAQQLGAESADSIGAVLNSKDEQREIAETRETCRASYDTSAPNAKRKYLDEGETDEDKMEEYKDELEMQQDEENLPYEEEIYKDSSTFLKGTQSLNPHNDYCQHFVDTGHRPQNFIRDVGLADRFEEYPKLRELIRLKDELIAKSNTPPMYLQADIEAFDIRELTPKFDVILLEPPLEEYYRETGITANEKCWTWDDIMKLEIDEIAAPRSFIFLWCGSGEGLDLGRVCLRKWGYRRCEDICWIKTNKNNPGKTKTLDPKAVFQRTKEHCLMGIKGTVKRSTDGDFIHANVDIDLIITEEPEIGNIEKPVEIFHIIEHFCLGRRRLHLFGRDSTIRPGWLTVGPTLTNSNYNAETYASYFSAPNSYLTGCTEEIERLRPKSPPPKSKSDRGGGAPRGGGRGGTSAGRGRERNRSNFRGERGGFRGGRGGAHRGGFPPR
PRMT5-MEP50, sequence (O14744 whole entry): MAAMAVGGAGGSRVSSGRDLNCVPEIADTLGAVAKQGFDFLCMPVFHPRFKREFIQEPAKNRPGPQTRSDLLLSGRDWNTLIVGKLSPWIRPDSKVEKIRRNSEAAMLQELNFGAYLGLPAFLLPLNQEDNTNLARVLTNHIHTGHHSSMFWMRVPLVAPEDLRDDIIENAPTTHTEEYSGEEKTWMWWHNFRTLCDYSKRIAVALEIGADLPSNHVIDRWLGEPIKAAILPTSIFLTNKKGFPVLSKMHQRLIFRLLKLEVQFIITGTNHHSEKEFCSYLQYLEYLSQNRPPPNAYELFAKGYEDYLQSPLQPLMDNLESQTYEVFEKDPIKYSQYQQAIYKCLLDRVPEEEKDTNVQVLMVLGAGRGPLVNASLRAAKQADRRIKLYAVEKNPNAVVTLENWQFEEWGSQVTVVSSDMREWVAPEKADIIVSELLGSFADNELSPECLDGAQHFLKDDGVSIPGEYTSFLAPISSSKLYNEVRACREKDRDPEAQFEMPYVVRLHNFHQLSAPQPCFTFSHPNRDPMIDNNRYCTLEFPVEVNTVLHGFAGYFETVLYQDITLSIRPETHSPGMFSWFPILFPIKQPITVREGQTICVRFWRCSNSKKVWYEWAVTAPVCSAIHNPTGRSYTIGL
PRMT5-MEP50, sequence (Q9BQA1 whole entry partner): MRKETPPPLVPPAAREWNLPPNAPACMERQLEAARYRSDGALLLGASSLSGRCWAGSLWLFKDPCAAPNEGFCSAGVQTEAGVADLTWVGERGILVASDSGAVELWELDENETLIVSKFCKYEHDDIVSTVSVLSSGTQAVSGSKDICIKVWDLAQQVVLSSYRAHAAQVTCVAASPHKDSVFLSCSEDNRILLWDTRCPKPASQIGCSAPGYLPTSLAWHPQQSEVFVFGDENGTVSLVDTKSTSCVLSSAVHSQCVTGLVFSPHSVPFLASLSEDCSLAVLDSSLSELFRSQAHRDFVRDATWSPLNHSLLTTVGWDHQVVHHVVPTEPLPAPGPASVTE
METTL1/WDR4, sequence (Q9UBP6 whole entry, species assumed): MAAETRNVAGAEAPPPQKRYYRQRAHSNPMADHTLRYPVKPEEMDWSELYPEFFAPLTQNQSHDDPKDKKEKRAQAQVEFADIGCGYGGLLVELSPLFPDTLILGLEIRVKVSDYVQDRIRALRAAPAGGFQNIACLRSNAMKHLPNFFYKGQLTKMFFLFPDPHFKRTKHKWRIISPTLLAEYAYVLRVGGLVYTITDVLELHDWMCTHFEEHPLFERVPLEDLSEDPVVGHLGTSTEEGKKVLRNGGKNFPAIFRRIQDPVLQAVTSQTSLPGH
METTL1/WDR4, sequence (P57081 whole entry partner, species assumed): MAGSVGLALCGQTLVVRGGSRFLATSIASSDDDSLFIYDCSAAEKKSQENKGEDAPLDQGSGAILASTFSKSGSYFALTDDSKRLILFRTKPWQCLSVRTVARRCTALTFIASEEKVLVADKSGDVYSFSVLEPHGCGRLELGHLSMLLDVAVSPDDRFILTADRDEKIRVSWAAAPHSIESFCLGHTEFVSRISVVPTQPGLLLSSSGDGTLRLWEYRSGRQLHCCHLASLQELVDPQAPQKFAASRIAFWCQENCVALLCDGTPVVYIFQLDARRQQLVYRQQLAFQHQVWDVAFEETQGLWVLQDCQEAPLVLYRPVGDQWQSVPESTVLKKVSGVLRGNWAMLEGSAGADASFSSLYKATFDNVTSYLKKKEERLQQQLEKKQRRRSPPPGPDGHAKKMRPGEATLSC

`CNc1ccc2ccc(OC[C@H]3O[C@H](n4cc(C(O)C5CC5)c5c(N)ncnc54)[C@H](O)[C@@H]3O)cc2n1` (some centres unmarked) [I-227] gave an IC50 (METTL3/METTL14; [3]) of under 10 nM, an IC50 (PRMT5-MEP50; [4]) of under 10 nM and an IC50 (MOLM-13 cells [1]; Homo sapiens) of over 10000 nM. For the same compound, the IC50 (METTL1/WDR4) was over 1000 nM.
For `CNc1ccc2ccc(OC[C@H]3O[C@@H](n4cc(-c5ccc(C)cn5)c5c(N)ncnc54)[C@@H](F)[C@@H]3O)cc2n1` [I-231], the IC50 (METTL3/METTL14) was under 10 nM, the IC50 (PRMT5-MEP50) was 100 to 1000 nM and the IC50 (MOLM-13 cells [1]; Homo sapiens) was under 1000 nM. The IC50 (METTL1/WDR4; [5]) was over 1000 nM.
`Cn1ccc(-c2cn([C@@H]3C[C@H](CCc4ccc5ccc(N6CCC6)nc5c4)[C@@H](O)[C@@H]3F)c3ncnc(N)c23)n1` [I-211] gave an IC50 (MOLM-13 cells [2]; Homo sapiens) of under 1000 nM, an IC50 (METTL3/METTL14) of under 10 nM and an IC50 (PRMT5-MEP50) of over 1000 nM.
`CCc1cc(N(C)CC2CC2)c2ccc(OC[C@H]3O[C@@H](n4cc(-c5ccn(C)n5)c5c(N)ncnc54)[C@@H](F)[C@@H]3O)cc2n1` [I-155] showed an IC50 (MOLM-13 cells [2]; Homo sapiens) of under 1000 nM, an IC50 (METTL3/METTL14) of under 10 nM and an IC50 (MOLM-13 cells [1]; Homo sapiens) of 1000 to 10000 nM.
Work on `CCc1cc(NCCOC)c2ncc(OC[C@H]3O[C@@H](n4cc(-c5ccn(C)n5)c5c(N)ncnc54)[C@H](O)[C@@H]3O)cc2n1` [I-159] yielded an IC50 (MOLM-13 cells [2]; Homo sapiens) of 1000 to 10000 nM, an IC50 (METTL3/METTL14) of under 10 nM and an IC50 (MOLM-13 cells [1]; Homo sapiens) of over 10000 nM.
`Nc1ncnc2c1c([C@H]1CCCO1)cn2[C@@H]1O[C@H](COc2ccc3ccc(N4CCC4)nc3c2)[C@@H](O)[C@@H]1F` [I-225] gave an IC50 (MOLM-13 cells [2]) of 1000 to 10000 nM, an IC50 (PRMT5-MEP50; [4]) of over 1000 nM and an IC50 (MOLM-13 cells [1]) of 1000 to 10000 nM.
`Nc1ncnc2c1c(CO)cn2[C@@H]1O[C@H](COc2ccc3ccc(N4CCC4)nc3c2)[C@@H](O)[C@@H]1F` [I-163] was tested, and the IC50 (MOLM-13 cells [2]; Homo sapiens, MOLM-13, 96 h) was 1000 to 10000 nM, the IC50 (METTL3/METTL14; [3]) was under 10 nM and the IC50 (PRMT5-MEP50; [4]) was over 1000 nM. For the same compound, the IC50 (MOLM-13 cells [1]; Homo sapiens) was 1000 to 10000 nM.
For `Nc1ncnc2c1c(-n1ccc(C(F)(F)F)n1)cn2[C@H]1C[C@H](O)[C@@H](COc2ccc3ccc(N4CCC4)nc3c2)O1` [I-178], the IC50 (MOLM-13 cells [2]; Homo sapiens) was 1000 to 10000 nM, the IC50 (METTL3/METTL14) was under 10 nM and the IC50 (PRMT5-MEP50) was over 1000 nM. For the same compound, the IC50 (MOLM-13 cells [1]; Homo sapiens) was 1000 to 10000 nM.
`Cn1ccc(-c2cn([C@@H]3O[C@H](COc4ccc5ccc(N6CC(N)C6)nc5c4)[C@@H](O)[C@@H]3F)c3ncnc(N)c23)n1` [I-181] showed an IC50 (MOLM-13 cells [2]; Homo sapiens) of under 1000 nM, an IC50 (METTL3/METTL14) of under 10 nM and an IC50 (PRMT5-MEP50) of over 1000 nM. For the same compound, the IC50 (MOLM-13 cells [1]; Homo sapiens) was under 1000 nM.
`C=CCc1cn([C@@H]2O[C@H](COc3ccc4ccc(NC)nc4c3)[C@@H](O)[C@H]2O)c2ncnc(N)c12` [I-226] gave an IC50 (METTL3/METTL14; [3]) of under 10 nM, an IC50 (PRMT5-MEP50; [4]) of under 10 nM and an IC50 (MOLM-13 cells [1]; Homo sapiens) of under 1000 nM. It also gave an IC50 (METTL1/WDR4) of over 1000 nM.
Compound `CNc1ccc2ccc(OC[C@H]3O[C@@H](n4cc(-c5ccn(C6CCC6)n5)c5c(N)ncnc54)[C@@H](F)[C@@H]3O)cc2n1` [I-143] has an IC50 (METTL3/METTL14; [3]) of under 10 nM, an IC50 (PRMT5-MEP50; [4]) of 100 to 1000 nM and an IC50 (MOLM-13 cells [1]; Homo sapiens) of 1000 to 10000 nM. For the same compound, the IC50 (METTL1/WDR4; [5]) was over 1000 nM.
`CNc1ccc2sc(CC[C@H]3O[C@@H](n4cc(-c5ccn(C)n5)c5c(N)ncnc54)[C@@H](F)[C@@H]3O)cc2n1` [I-190] was tested, and the IC50 (MOLM-13 cells [2]; Homo sapiens) was under 1000 nM, the IC50 (METTL3/METTL14) was under 10 nM and the IC50 (PRMT5-MEP50) was 10 to 100 nM.
In the case of `CNc1ccc2ccc(OC[C@H]3O[C@@H](n4cc(-c5ccn(C6COC6)n5)c5c(N)ncnc54)[C@@H](F)[C@@H]3O)cc2n1` [I-144], the IC50 (METTL3/METTL14; read-out: METTL3 IC50, METTL3 biochemical assay) is reported as under 10 nM, the IC50 (PRMT5-MEP50; read-out: PRMT5 IC50, PRMT5 biochemical assay) is reported as 100 to 1000 nM and the IC50 (MOLM-13 cells [1]; Homo sapiens) is reported as 1000 to 10000 nM. The IC50 (METTL1/WDR4; [5]) was over 1000 nM.
For `CCc1cc(N(C)C2CC2)c2ccc(OC[C@H]3O[C@@H](n4cc(-c5ccn(C)n5)c5c(N)ncnc54)[C@@H](F)[C@@H]3O)cc2n1` [I-154], the IC50 (MOLM-13 cells [2]; Homo sapiens) was 1000 to 10000 nM, the IC50 (METTL3/METTL14) was under 10 nM and the IC50 (MOLM-13 cells [1]; Homo sapiens) was 1000 to 10000 nM.
